According to paper PMC9026008 (ACS Omega, 2022):
Numbering of substitutions follows the chain as printed. Values belong to the molecule of their own block, whether it stands above or below them.

Experiments:
CGI-58 = target: T1, CGI-58 (Homo sapiens, UniProt Q8WTS1, S237E/W19A/W23A/W27A); experiment: intrinsic tryptophan fluorescence quenching, […] protein, […] °C; type: binding
T1 sequence (Q8WTS1 1-349 W19A/W23A/W27A/S237E): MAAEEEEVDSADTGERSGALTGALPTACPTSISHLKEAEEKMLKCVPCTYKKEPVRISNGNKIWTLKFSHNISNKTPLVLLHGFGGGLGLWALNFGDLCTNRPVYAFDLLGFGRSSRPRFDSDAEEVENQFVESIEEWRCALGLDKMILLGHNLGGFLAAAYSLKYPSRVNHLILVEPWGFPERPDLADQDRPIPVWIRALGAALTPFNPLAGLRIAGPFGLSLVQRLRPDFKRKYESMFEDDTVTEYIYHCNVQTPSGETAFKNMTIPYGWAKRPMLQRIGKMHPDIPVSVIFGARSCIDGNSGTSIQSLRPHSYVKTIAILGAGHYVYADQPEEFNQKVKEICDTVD

SEC = target: the molecule itself; experiment: SEC

Kd (CGI-58): 2300 ± 300 nM
Molecule: CCCCCCCC/C=C\CCCCCCCC(=O)SCCNC(=O)CCNC(=O)[C@H](O)C(C)(C)COP(=O)(O)OP(=O)(O)OC[C@H]1O[C@@H](n2cnc3c(N)ncnc32)[C@H](O)[C@@H]1OP(=O)(O)O [oleoyl-CoA]

B1: human CGI-58 (Comparative Gene Identification-58) wild-type protein (natural protein, UniProt Q8WTS1 1-349, looked up)
chain: T1 sequence (Q8WTS1 1-349 W19A/W23A/W27A/S237E) with A19W, A23W, A27W, E237S
binding result (SEC): binds
